Test results taken from patent publication US9868722B2, “Monocyclic pyrimidine/pyridine compounds as inhibitors of P97 complex” (Cleave Biosciences, Inc., priority 2013, dated 2018).
Like-named read-outs stand apart in the source and are kept apart here.

Tests used:
p97 = p97 (Homo sapiens, UniProt P55072); assay: P97 ATPase biochemical assay (ADP Glo)
Procedure: The ATPase assay is performed according the following protocol: Purified enzyme (20 nM p97), substrate (20 μM ATP) and a dose titration of compounds are mixed in buffer (50 mM TRIS pH 7.5, 20 mM MgCl2, 0.02% TX-100, 1 mM DTT, 0.2% (v/v) glycerol) and incubated at 37° C. for 15 minutes. The reaction is terminated and the level of product generated is measured using the ADP Glo Assay Kit (Promega, Madison Wis.). Plotting product generated versus compound concentration and using a four-parameter fit model generates an IC50 value for each compounds.
The p97 assay is an initial screening assay used to determine inhibitory activity of the monocyclic pyrimidine compounds of the invention against the p97 complex. As discussed above, inhibition of activity of the p97 proteosome complex can enable apoptosis and cause elimination of neoplastic cells (cancer cells). The method follows that of Christianson in Nat. Cell Biol., (2011) 14:93.
Assay Buffer is a mixture of 50 mM TRIS pH 7.5, 20 mM MgCl2, 0.02% TX-100, 1 mM DTT and 0.2% (v/v) Glycerol. The well plate is Platetype: Corning 3674, 384w plate. The identification kit is an ADP glo kit (Promega): stop buffer, detection reagent.
Serial dilute compound in DMSO in a 1:3.33-fold 10 point serial dilution.
0.5 μL compound serial diluted in DMSO (Final Conc. 10%)
2 μL ATP (Final Conc.=20 uM, diluted in assay buffer)
2.5 μL p97 (Final Conc.=20 nM, diluted in assay buffer)
Incubate at 37 degC for 15 min.
Add 5 μL of stop buffer, incubate at RT for 40 min.
Add 10 μL of detection reagent, incubate at RT for 30 min.
Read luminescence on Envision plate reader. • Upon obtaining the data from the luminescence reading, the data may be analyzed as follows:
Normalize luminescence data using no enzyme (full inhibition) and no compound (no inhibition) controls. Plot normalized luminescence data against log-transformed concentration values and fit to a sigmoidal curve to determine IC50 values (done in Collaborative Drug Discovery software).
The results are reported on the following Table for Examples A-EE and the E1-E4 compounds as 50 percent Inhibitory concentration at candidate doses of less than 30 nM, less than 100 nM, less than 300 nM and less than 1000 nM for the p97 inhibition assay.

A549 cells = assay: Cultured cancer cell viability assay (cell titer glo, A549 CTG); format: cell-based; settings: Homo sapiens
From the text: Anti-tumor effects are monitored in cultured cancer cells after several days of compound treatment. The cell titer glo assay (Promega) measures the amount of ATP present as a proxy for cellular viability. Cellular counting is done using high-content microscopy followed by image analysis. A hanging drop 3D-culture system (3D Biomatrix) is used followed by cell titer glo to measure growth in a tumor-like environment.
The cellular assay provides information about the anti-neoplastic activity of the compounds of the invention. The compounds are tested against cultured cancer cells to determine whether or not the compounds of the invention are capable of intersecting with cancer cells to minimize or eliminate such cells. The assay involves establishing colonies of such cells and then treating them with the test compound under specified conditions and analysis regime to determine results.
(§1) Plate 25 μL of A549 cells in every well of 384-well plate using multidrop.
One (1) white plate for viability at 500 cells/well.
Serial dilute compounds with a 10 point 2-fold serial dilution in DMSO to make 250× stock compound solution
Dilute compounds 1:125 in cell culture media to make a 2× solution Add 25 μl of dilution compounds to cell plates in well duplicates
Put cells back in incubator (6 hr incubation for black plates, 72 hr incubation for white plates).
Thaw an aliquot of frozen cell titer glo (Promega G7572) at room temperature.
Add 45 mL of NaCl/PBS solution to 5 ml of cell titer glo (10×).
Remove white plates from incubator, leave at room temp for 30 minutes.
Add 25 μl of diluted cell titer glo to each well.
Shake plate for >1 minute.
Incubate plate for >5 minutes to stabilize luminescence. • Luminescence is stable for up to 3 hours.
Read luminescence on plate reader
The results are reported on the following Table I for Examples A-EE and the E1-E4 compounds as 50 percent Inhibitory concentration at candidate doses of less than 1 μM, less than 3 μM and less than 10 μM for both of the K48 antibody and the p53 (CTG) antibody assays

[1] = test system: K48 poly-Ubiquitin accumulation in A549 cells; assay: A549 K48 poly-ubiquitin accumulation immunofluorescence assay; format: cell-based; settings: Homo sapiens
Procedure: Image-analysis is used to generate quantitative data from these assays that can be fit to a four-parameter sigmoid curve to derive IC50 values. Substrates of the ubiquitin-proteasome system, such as p53, are monitored after tumor cell lines are incubated with compounds for several hours. Accumulation of these proteins indicates an inhibition of proteasome-mediated degradation. Accumulation of lysine-48 chain linkage of poly-ubiquitin is also monitored by immunofluorescence as an indicator of ubiquitin-proteasome system inhibition. Both LC3 and SQSTM1 are mediators of autophagy. The localization and amounts of these proteins are monitored by immunofluorescence and report on the activity and inhibition of autophagy in response to p97 inhibition.
as §1
Two (2) black plates for IF at 2500 cells/well
Serial dilute compounds with a 10 point 2-fold serial dilution in DMSO to make 250× stock compound solution Dilute compounds 1:125 in cell culture media to make a 2× solution Add 25 μl of dilution compounds to cell plates in well duplicates Put cells back in incubator (6 hr incubation for black plates, 72 hr incubation for white plates).
Incubate cells in black plates with compound at 37 degC for 6 hrs. add 15 μL of 16% Paraformaldehyde (PFA) directly into media of each well, incubate at room temp for 5 min, flick plate and wash in 50 μL of PBS block in 50 μL of Blocking Buffer for 30 minutes (can go up to several hours) Blocking buffer: 1×PBS, 1% BSA, 0.3% Triton-X100, Hoechst (1:10,000) incubate in 25 μL of primary antibody in blocking buffer at 4 degC over night […]
Secondary Antibodies: • AlexaFluor488 Goat anti-Rabbit 1:2,000 (Life Tech A11008) • AlexaFluor555 Goat anti-Mouse 1:2,000 (Life Tech A21422) incubate in 25 μl of secondary antibody (1:2,000) in blocking buffer for 1-2 hrs at room temp (alexafluor488-anti-Rabbit/alexafluor555-anti-Mouse) Image plates in high content microscope with 405 nm, 488 nm and 555 nm filters Nuclear counts and cellular intensities of each markers are measured using Hoechst as a nuclear marker with an automated image analysis protocol using Matlab software (Math Works) The results are reported on the following Table I for Examples A-EE and the E1-E4 compounds as 50 percent Inhibitory concentration at candidate doses of less than 1 μM, less than 3 μM and less than 10 μM for both of the K48 antibody and the p53 (CTG) antibody assays

[2] = 20 nM p97, 20 uM ATP, 37 degC 15 min
[3] = A549 cells, 72 hr incubation, cell titer glo, read-out: A549 CTG IC50
[4] = A549 cells, 6 hr incubation, K48-Ub antibody, read-out: A549 K48 IC50

Chain of p97 (P55072 whole entry): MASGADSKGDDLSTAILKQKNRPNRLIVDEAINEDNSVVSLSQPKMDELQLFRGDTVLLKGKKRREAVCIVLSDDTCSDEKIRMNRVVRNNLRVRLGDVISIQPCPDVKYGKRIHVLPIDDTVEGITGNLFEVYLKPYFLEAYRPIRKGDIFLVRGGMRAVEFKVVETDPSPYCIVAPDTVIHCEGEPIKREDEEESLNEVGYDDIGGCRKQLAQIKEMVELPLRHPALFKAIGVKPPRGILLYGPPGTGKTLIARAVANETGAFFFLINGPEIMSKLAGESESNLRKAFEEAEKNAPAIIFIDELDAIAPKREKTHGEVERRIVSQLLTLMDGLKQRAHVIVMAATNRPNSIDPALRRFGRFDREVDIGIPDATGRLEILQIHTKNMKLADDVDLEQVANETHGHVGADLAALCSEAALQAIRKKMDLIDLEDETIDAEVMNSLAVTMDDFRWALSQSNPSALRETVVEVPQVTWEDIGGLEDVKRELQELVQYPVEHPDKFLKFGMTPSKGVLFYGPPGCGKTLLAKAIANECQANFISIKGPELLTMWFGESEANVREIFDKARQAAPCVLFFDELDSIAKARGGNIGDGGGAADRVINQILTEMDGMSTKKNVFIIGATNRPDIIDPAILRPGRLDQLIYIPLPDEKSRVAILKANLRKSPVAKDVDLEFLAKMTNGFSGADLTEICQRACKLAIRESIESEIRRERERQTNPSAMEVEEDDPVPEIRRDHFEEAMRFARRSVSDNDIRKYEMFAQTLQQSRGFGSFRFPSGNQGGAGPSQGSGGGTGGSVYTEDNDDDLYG

IC50 (p97; [2])	IC50 (A549 cells; [3])	IC50 [1, 4]	IC50 (p97; Table II, preliminary assays)	IC50 (A549 cells; A549, Table II, preliminary assays, read-out: Cell Titre Glow Assay IC50)	IC50 ([1]; A549, Table II, preliminary assays, read-out: K48 poly-Ubiquitin Accumulation)	Compound
< 300 nM	< 3000 nM	< 3000 nM				Cc1nc(-n2ncc3c(C(N)=O)cccc32)nc(NCc2ccccc2)c1C(C)C [Example 11, 1-(4-(benzylamino)-5-isopropyl-6-methylpyrimidin-2-yl)-1H-indazole-4-carboxamide]
< 30 nM	< 1000 nM	< 3000 nM	9 nM	730 nM	640 nM	Cc1cc2c(C(N)=O)cccc2n1-c1ncc(C(C)C)c(NCc2ccccc2)n1 [Example 12, 1-(4-(benzylamino)-5-(propan-2-yl)pyrimidin-2-yl)-2-methyl-1H-indole-4-carboxamide]
< 30 nM	< 3000 nM	< 1000 nM				Cc1cc2c(C(N)=O)cccc2n1-c1ncc(N(C)C)c(NCc2ccccc2)n1 [Example 13, 1-(4-(benzylamino)-5-(dimethylamino)pyrimidin-2-yl)-2-methyl-1H-indole-4-carboxamide]
< 30 nM	< 3000 nM	< 3000 nM				Cc1nc(-n2c(C)cc3c(C(N)=O)cccc32)nc(NCc2ccccc2)c1N(C)C [Example 15, 1-[4-(benzylamino)-5-(dimethylamino)-6-methylpyrimidin-2-yl]-2-methyl-1H-indole-4-carboxamide]
< 300 nM	< 10000 nM	< 3000 nM				COCc1cnc(-n2c(C)cc3c(C(N)=O)cccc32)nc1NCc1ccccc1 [Example 18, 1-[4-(benzylamino)-5-(methoxymethyl)pyrimidin-2-yl]-2-methyl-1H-indole-4-carboxamide]
< 100 nM	< 3000 nM	< 3000 nM				Cc1cc2c(C(N)=O)cccc2n1-c1ncc(S(C)(=O)=O)c(NCc2ccccc2)n1 [Example 19, 1-[4-(benzylamino)-5-(methylsulfonyl)pyrimidin-2-yl]-2-methyl-1H-indole-4-carboxamide]
< 300 nM	< 10000 nM	< 10000 nM				CC(=O)NCc1cnc(-n2c(C)cc3c(C(N)=O)cccc32)nc1NCc1ccccc1 [Example 24, 1-[4-(benzylamino)-5-(acetamidomethyl)pyrimidin-2-yl]-2-methyl-1H-indole-4-carboxamide]
< 100 nM	< 3000 nM	< 3000 nM				Cc1cc2c(C(N)=O)cccc2n1-c1ncc(OC(C)C)c(NCc2ccccc2)n1 [Example 26, 1-[4-(benzylamino)-5-(propan-2-yloxy)pyrimidin-2-yl]-2-methyl-1H-indole-4-carboxamide]
< 30 nM	< 3000 nM	< 3000 nM				CCOc1cnc(-n2c(C)cc3c(C(N)=O)cccc32)nc1NCc1ccccc1 [Example 27, 1-[4-(benzylamino)-5-ethoxypyrimidin-2-yl]-2-methyl-1H-indole-4-carboxamide]
< 100 nM	< 10000 nM	< 3000 nM				COCCOc1cnc(-n2c(C)cc3c(C(N)=O)cccc32)nc1NCc1ccccc1 [Example 28, 1-[4-(benzylamino)-5-(2-methoxyethoxy)pyrimidin-2-yl]-2-methyl-1H-indole-4-carboxamide]
< 100 nM	< 3000 nM	< 1000 nM				COc1cnc(-n2c(CN)cc3c(C(N)=O)cccc32)nc1NCc1ccccc1 [Example 29, 2-(aminomethyl)-1-(4-(benzylamino)-5-methoxypyrimidin-2-yl)-1H-indole-4-carboxamide]
< 100 nM	< 3000 nM	< 3000 nM				CC(C)c1cnc(-n2c(CN)cc3c(C(N)=O)cccc32)nc1NCc1ccccc1 [Example 30, 2-(aminomethyl)-1-[4-(benzylamino)-5-(propan-2-yl)pyrimidin-2-yl]-1H-indole-4-carboxamide]
< 30 nM	< 10000 nM	< 3000 nM				COc1nc(-n2c(C)cc3c(C(N)=O)cccc32)nc(NCc2ccccc2)c1C [Example 33, 1-(4-(benzylamino)-6-methoxy-5-methylpyrimidin-2-yl)-2-methyl-1H-indole-4-carboxamide]
